Measured values taken from patent US9932479B2, “Dyes and compositions, and processes for using same in analysis of protein aggregation and other applications” (Enzo Biochem, Inc., priority 2009, dated 2018).
One block for each molecule: values may come before it.

How the values were obtained:
[1] = target: T1, recombinant human alpha-synuclein (ASN) aggregate (Homo sapiens, UniProt P37840); assay: Fluorescence excitation and emission spectra of dye in the presence of aggregated alpha-synuclein; format: binding; settings: for In the presence of aggregate: Emission wavelength / In the presence of aggregate: Excitation wavelength: 1 μM aggregated ASN, 50 mM Tris-HCl, pH 7.8, 10 μM dye
T1 construct: purchased Sigma-Aldrich
Method: (§1) Fluorescent readings were carried out in 50 mM Tris-HCl, pH 7.8 using 10 μM dye. […] Fluorescence excitation and emission spectra were collected on a Cary Eclipse fluorescence spectrophotometer (Varian, Australia). Fluorescence spectra were measured with excitation and emission slit widths set to 5 nm, and at a constant PMT voltage. Spectroscopic measurements were performed in standard quartz cells. All measurements were made at the respective excitation maxima of each dye. All measurements were carried out at room temperature.

[2] = Fluorescence excitation and emission spectra of dye freely dissolved in buffer; format: physicochemical; settings: 50 mM Tris-HCl, pH 7.8, 10 μM dye, room temperature
Method: as §1

[3] = tested on: goat-anti-mouse IgG aggregate; assay: Fluorescence enhancement (aggregate/native IgG) in the presence of excipients; format: binding; settings: for Fluorescence enhancement (aggregate/native IgG): 2.8 μM IgG, 0.625 μM dye; for Fluorescence enhancement (aggregate/native IgG), Average: Average over all excipient conditions
Method: IgG aggregate was prepared by adjusting 5.83 mg/ml of purified goat-anti-mouse IgG (H&L, Pel Freez, Rogers, Ark.) to pH 2.7 using HCl and incubating at 22° C. for 24 hours. The assay was performed using 2.8 μM IgG, either native or aggregated, and a dye concentration of 0.625 μM. The protein and dye were mixed together for 15 minutes at 22° C., then this was further incubated in the presence of the excipients shown in the table. The fluorescence intensity of S-25, Tol3 and Y2150 were determined with a FLUOstar OPTIMA plate reader (BMG LABTECH) at excitation wavelength of 550 nm and emission wavelength of 610 nm; while the fluorescence intensity for Thioflavin-T was determined using a SpectraMAX GeminiXS (Molecular device, with Softmax Pro 7.0) using an excitation wavelength of 435 nm and emission wavelength of 495 nm. The fluorescence enhancement (aggregate/native IgG) is shown.

[4] = tested on: Goat anti-mouse IgG; assay: High-throughput protein formulation optimization: effect of excipients on IgG aggregation at 50° C., S-25/Tol3 readout; format: biochemical; settings: 50° C. for 6 hours
Method: (A). Goat anti-mouse IgG was diluted in sodium acetate, pH 4.5, then mixed with the excipients shown in FIG. 10 A giving a final concentration of 400 mM sodium acetate, 18 μM IgG and the excipient concentration shown in the Table 2. This mixture was heated to 50° C. for 6 hours. At this time the protein solution was diluted two-fold to give a final concentration of 50 mM Histidine buffer, originally pH 7, 2.5 μM S-25, 2.5 μM Tol3 and 9 μM IgG. After 30 minutes of incubation on the shaker, the fluorescence intensity was recorded on the plate reader (FLUOstar Optima). The fluorescence intensity from each individual excipient was then compared with that without any excipient (Value set as 1.0) as shown on the top of the corresponding excipient bar in FIG. 12 A.
(B). In the control plate, the IgG was added to the plate, at the same volume and concentration given above (Example 17A) in 400 mM Sodium Acetate. This mixture was heated to 50° C. for 6 hours, as described above. After 6 hours, the excipient was added followed by S-25 and Tol3 to give all the final concentrations as shown in Example 17A. Similar to the sample plate, the fluorescence intensity from individual excipients was also compared with that from water without any excipient (Values set as 1.0) to obtain the relative fluorescent intensity as shown on the top of the corresponding excipient bar in FIG. 12B.
(C). […]

In the presence of aggregate: Emission wavelength [1]: 623 nm
In the presence of aggregate: Excitation wavelength [1]: 550 nm
Molecule: CN(C)c1ccc(/C=C/c2cc[n+](Cc3ccccc3C[n+]3ccc(/C=C/c4ccc(N(C)C)cc4)cc3)cc2)cc1.[Br-].[Br-] [Dye S43]

In the presence of aggregate: Emission wavelength [1]: 480 nm
In the presence of aggregate: Excitation wavelength [1]: 447 nm
Stokes shift ([1]; as seen in Table 1): 23 nm
Dye freely dissolved in buffer: Emission wavelength [2]: 472 nm
Dye freely dissolved in buffer: Excitation wavelength [2]: 400 nm
Molecule: Cc1ccc2c(c1)sc(-c1ccc(N(C)C)cc1)[n+]2C.[Cl-] [Thioflavin-T, Thioflavin T, reference compound]
Fluorescence enhancement (aggregate/native IgG) ([3]; Ammonium Sulfate, 10 mM): 2.8 fold
Fluorescence enhancement (aggregate/native IgG) ([3]; Ammonium Sulfate, 100 mM): 2.6 fold
Fluorescence enhancement (aggregate/native IgG) ([3]; Ammonium Sulfate, 300 mM): 1.4 fold
Fluorescence enhancement (aggregate/native IgG) ([3]; Arginine, 200 mM): 1.4 fold
Fluorescence enhancement (aggregate/native IgG) ([3]; Arginine, 500 mM): 2.0 fold
Fluorescence enhancement (aggregate/native IgG) ([3]; Ascoric Acid, 1 mM): 1.5 fold
Fluorescence enhancement (aggregate/native IgG), Average [3]: 2.9 fold
Fluorescence enhancement (aggregate/native IgG) ([3]; Calcium Chloride, 10 mM): 3.1 fold
Fluorescence enhancement (aggregate/native IgG) ([3]; Calcium Chloride, 50 mM): 1.5 fold
Fluorescence enhancement (aggregate/native IgG) ([3]; Calcium Chloride, 200 mM): 1.7 fold
Fluorescence enhancement (aggregate/native IgG) ([3]; DTT, 1 mM): 1.6 fold
Fluorescence enhancement (aggregate/native IgG) ([3]; Glycine, 0.5%): 3.1 fold
Fluorescence enhancement (aggregate/native IgG) ([3]; Glycine, 2%): 3.2 fold
Fluorescence enhancement (aggregate/native IgG) ([3]; Lactose, 100 mM): 1.2 fold
Fluorescence enhancement (aggregate/native IgG) ([3]; Lactose, 300 mM): 1.4 fold
Fluorescence enhancement (aggregate/native IgG) ([3]; Mannitol, 100 mM): 3.1 fold
Fluorescence enhancement (aggregate/native IgG) ([3]; Mannitol, 300 mM): 3.7 fold
Fluorescence enhancement (aggregate/native IgG) ([3]; Mannitol, 600 mM): 1.8 fold
Fluorescence enhancement (aggregate/native IgG) ([3]; Sodium Chloride, 10 mM): 1.6 fold
Fluorescence enhancement (aggregate/native IgG) ([3]; Sodium Chloride, 100 mM): 1.3 fold
Fluorescence enhancement (aggregate/native IgG) ([3]; Sodium Chloride, 1000 mM): 2.7 fold
Fluorescence enhancement (aggregate/native IgG) ([3]; Sorbitol, 100 mM): 3.0 fold
Fluorescence enhancement (aggregate/native IgG) ([3]; Sorbitol, 300 mM): 1.9 fold
Fluorescence enhancement (aggregate/native IgG) ([3]; Sorbitol, 600 mM): 3.6 fold
Fluorescence enhancement (aggregate/native IgG) ([3]; Trehalose, 100 mM): 2.2 fold
Fluorescence enhancement (aggregate/native IgG) ([3]; Trehalose, 300 mM): 0.2 fold
Fluorescence enhancement (aggregate/native IgG) ([3]; Trehalose, 600 mM): 4.8 fold
Fluorescence enhancement (aggregate/native IgG) ([3]; Tween 20, 0.01%): 4.6 fold
Fluorescence enhancement (aggregate/native IgG) ([3]; Tween 20, 0.2%): 2.6 fold
Fluorescence enhancement (aggregate/native IgG) ([3]; X100, 0.01%): 5.3 fold
Fluorescence enhancement (aggregate/native IgG) ([3]; X100, 0.2%): 6.6 fold
Fluorescence enhancement (aggregate/native IgG) ([3]; X100, 1%): 3.4 fold

Molecule: OC[C@H]1O[C@H](O[C@H]2O[C@H](CO)[C@@H](O)[C@H](O)[C@H]2O)[C@H](O)[C@@H](O)[C@@H]1O [Trehalose]
Effect on aggregation of IgG (fluorescence ratio sample plate / control plate) ([4]; 100 mM Trehalose): inhibit or slow down aggregation of IgG

In the presence of aggregate: Emission wavelength [1]: 613 nm
In the presence of aggregate: Excitation wavelength [1]: 535 nm
Dye freely dissolved in buffer: Emission wavelength [2]: 620 nm
Dye freely dissolved in buffer: Excitation wavelength [2]: 500 nm
Molecule: CCN(CC)c1ccc(/C=C/c2cc[n+](CCCC[n+]3ccc(/C=C/c4ccc(N(CC)CC)cc4)cc3)cc2)cc1.[I-].[I-] [Yat 2134]

In the presence of aggregate: Emission wavelength [1]: 625 nm
In the presence of aggregate: Excitation wavelength [1]: 553 nm
Molecule: CCN(CC)c1ccc(/C=C/c2cc[n+](Cc3ccccc3C[n+]3ccc(/C=C/c4ccc(N(CC)CC)cc4)cc3)cc2)cc1.[Br-].[Br-] [Yat 2148]

In the presence of aggregate: Emission wavelength [1]: 617 nm
In the presence of aggregate: Excitation wavelength [1]: 534 nm
Dye freely dissolved in buffer: Emission wavelength [2]: 614 nm
Dye freely dissolved in buffer: Excitation wavelength [2]: 502 nm
Molecule: CCN(CC)c1ccc(/C=C/c2cc[n+](CCOCC[n+]3ccc(/C=C/c4ccc(N(CC)CC)cc4)cc3)cc2)cc1.[I-].[I-] [Yat 2149]

Molecule: CCN(CC)c1ccc(/C=C/c2cc[n+](CCCCCCCCCC[n+]3ccc(/C=C/c4ccc(N(CC)CC)cc4)c(C)c3)cc2C)cc1 [Yat 2150]
In the presence of aggregate: Emission wavelength [1]: 610 nm
In the presence of aggregate: Excitation wavelength [1]: 515 nm
Dye freely dissolved in buffer: Emission wavelength [2]: 612 nm
Dye freely dissolved in buffer: Excitation wavelength [2]: 485 nm
Fluorescence enhancement (aggregate/native IgG) ([3]; Ammonium Sulfate, 10 mM): 12.4 fold
Fluorescence enhancement (aggregate/native IgG) ([3]; Ammonium Sulfate, 100 mM): 12.5 fold
Fluorescence enhancement (aggregate/native IgG) ([3]; Ammonium Sulfate, 300 mM): 14.6 fold
Fluorescence enhancement (aggregate/native IgG) ([3]; Arginine, 200 mM): 14.4 fold
Fluorescence enhancement (aggregate/native IgG) ([3]; Arginine, 500 mM): 14.3 fold
Fluorescence enhancement (aggregate/native IgG) ([3]; Ascoric Acid, 1 mM): 14.5 fold
Fluorescence enhancement (aggregate/native IgG), Average [3]: 14.8 fold
Fluorescence enhancement (aggregate/native IgG) ([3]; Calcium Chloride, 10 mM): 12.4 fold
Fluorescence enhancement (aggregate/native IgG) ([3]; Calcium Chloride, 50 mM): 14.7 fold
Fluorescence enhancement (aggregate/native IgG) ([3]; Calcium Chloride, 200 mM): 13.9 fold
Fluorescence enhancement (aggregate/native IgG) ([3]; DTT, 1 mM): 11.3 fold
Fluorescence enhancement (aggregate/native IgG) ([3]; Glycine, 0.5%): 12.5 fold
Fluorescence enhancement (aggregate/native IgG) ([3]; Glycine, 2%): 19.0 fold
Fluorescence enhancement (aggregate/native IgG) ([3]; Lactose, 100 mM): 17.5 fold
Fluorescence enhancement (aggregate/native IgG) ([3]; Lactose, 300 mM): 31.0 fold
Fluorescence enhancement (aggregate/native IgG) ([3]; Mannitol, 100 mM): 11.2 fold
Fluorescence enhancement (aggregate/native IgG) ([3]; Mannitol, 300 mM): 13.8 fold
Fluorescence enhancement (aggregate/native IgG) ([3]; Mannitol, 600 mM): 17.7 fold
Fluorescence enhancement (aggregate/native IgG) ([3]; Sodium Chloride, 10 mM): 14.4 fold
Fluorescence enhancement (aggregate/native IgG) ([3]; Sodium Chloride, 100 mM): 11.3 fold
Fluorescence enhancement (aggregate/native IgG) ([3]; Sodium Chloride, 1000 mM): 15.0 fold
Fluorescence enhancement (aggregate/native IgG) ([3]; Sorbitol, 100 mM): 17.3 fold
Fluorescence enhancement (aggregate/native IgG) ([3]; Sorbitol, 300 mM): 15.6 fold
Fluorescence enhancement (aggregate/native IgG) ([3]; Sorbitol, 600 mM): 18.7 fold
Fluorescence enhancement (aggregate/native IgG) ([3]; Trehalose, 100 mM): 14.0 fold
Fluorescence enhancement (aggregate/native IgG) ([3]; Trehalose, 300 mM): 19.4 fold
Fluorescence enhancement (aggregate/native IgG) ([3]; Trehalose, 600 mM): 18.9 fold
Fluorescence enhancement (aggregate/native IgG) ([3]; Tween 20, 0.01%): 5.5 fold
Fluorescence enhancement (aggregate/native IgG) ([3]; Tween 20, 0.2%): 2.6 fold
Fluorescence enhancement (aggregate/native IgG) ([3]; X100, 0.01%): 4.1 fold
Fluorescence enhancement (aggregate/native IgG) ([3]; X100, 0.2%): 2.6 fold
Fluorescence enhancement (aggregate/native IgG) ([3]; X100, 1%): 1.7 fold

Molecule: Triton X-100
Effect on aggregation of IgG (fluorescence ratio sample plate / control plate) ([4]; 0.2% Triton X-100): induce aggregation of IgG
